Experimental data: ChEMBL document CHEMBL1201862, “PubChem BioAssay data set” (2004)
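A five-concentration, 48-hour dose response in 96-well plates underlies each endpoint, interpolated linearly between surrounding concentrations. GI50 = concentration required for 50% inhibition of growth.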 Active and inactive are the calls of the source. Rule as the data show it: active = GI50 up to about 1.1 µM and inactive = higher. Where a SMILES comes first, the peptide text is derived from it. The star is where a group is joined. Boc = CC(C)(C)OC(=O)*; tBu = CC(C)(C)*

Legend:
Assay in all cases: growth of human tumour cells (NCI), 48 h
MOLT-4 = test system: MOLT-4
SF-268 = test system: SF-268
T47D = test system: T47D
CCRF-CEM = test system: CCRF-CEM
PC-3 = test system: PC-3
OVCAR-3 = test system: OVCAR-3
DU-145 = test system: DU-145
NCI-H522 = test system: NCI-H522
HOP-62 = test system: HOP-62
SK-MEL-5 = test system: SK-MEL-5
NCI-H23 = test system: NCI-H23
SK-MEL-28 = test system: SK-MEL-28
HOP-92 = test system: HOP-92
NCI/ADR-RES = test system: NCI/ADR-RES
M14 = test system: M14
HL-60 = test system: HL-60
OVCAR-8 = test system: OVCAR-8
SK-OV-3 = test system: SK-OV-3
ACHN = test system: ACHN
SF-539 = test system: SF-539

| Compound | GI50 (MOLT-4) | GI50 (SF-268) | GI50 (T47D) | GI50 (CCRF-CEM) | GI50 (PC-3) | GI50 (OVCAR-3) | GI50 (DU-145) | GI50 (NCI-H522) | GI50 (HOP-62) | GI50 (SK-MEL-5) | GI50 (NCI-H23) | GI50 (SK-MEL-28) | GI50 (HOP-92) | GI50 (NCI/ADR-RES) | GI50 (M14) | GI50 (HL-60) | GI50 (OVCAR-8) | GI50 (SK-OV-3) | GI50 (ACHN) | GI50 (SF-539) |
| --- | --- | --- | --- | --- | --- | --- | --- | --- | --- | --- | --- | --- | --- | --- | --- | --- | --- | --- | --- | --- |
| O=C(O)CCC(NC(=O)c1ccc(Oc2nc3ccccc3nc2C(=O)O)cc1)C(=O)O (stereo unspecified) | > 100 µM (inactive) | > 100 µM (inactive) | > 100 µM (inactive) | > 100 µM (inactive) | > 100 µM (inactive) | > 100 µM (inactive) | > 100 µM (inactive) | > 100 µM (inactive) | > 100 µM (inactive) | > 100 µM (inactive) | > 100 µM (inactive) | > 100 µM (inactive) | > 100 µM (inactive) | > 100 µM (inactive) | > 100 µM (inactive) | > 100 µM (inactive) | > 100 µM (inactive) | > 100 µM (inactive) | > 100 µM (inactive) | – |
| N#C/C(=C1\N=C(c2ccccc2O)Oc2ccccc21)c1ccc([N+](=O)[O-])cc1 | > 100 µM (inactive) | > 100 µM (inactive) | > 100 µM (inactive) | > 100 µM (inactive) | > 100 µM (inactive) | > 100 µM (inactive) | > 100 µM (inactive) | – | 33.8 µM (inactive) | > 100 µM (inactive) | > 100 µM (inactive) | > 100 µM (inactive) | > 100 µM (inactive) | > 100 µM (inactive) | > 100 µM (inactive) | > 100 µM (inactive) | > 100 µM (inactive) | > 100 µM (inactive) | > 100 µM (inactive) | 66.5 µM (inactive) |
| C=CCOc1ccc(C(=N/NC(=O)c2ccccc2)/N=N/c2ccc([N+](=O)[O-])cc2)cc1OC | 92.5 µM (inactive) | > 100 µM (inactive) | 29 µM (inactive) | > 100 µM (inactive) | > 100 µM (inactive) | > 100 µM (inactive) | 77.4 µM (inactive) | > 100 µM (inactive) | > 100 µM (inactive) | 76.6 µM (inactive) | > 100 µM (inactive) | > 100 µM (inactive) | 18.6 µM (inactive) | > 100 µM (inactive) | > 100 µM (inactive) | 93.3 µM (inactive) | > 100 µM (inactive) | – | > 100 µM (inactive) | > 100 µM (inactive) |
| CCCCOc1ccc(S(=O)(=O)N/C(=N\O)Nc2ccc(Cl)cc2)cc1 | 10.8 µM (inactive) | 16 µM (inactive) | 6.64 µM (inactive) | 19 µM (inactive) | 15.8 µM (inactive) | 14.9 µM (inactive) | 15.9 µM (inactive) | 14.7 µM (inactive) | 17.9 µM (inactive) | 14.3 µM (inactive) | 14.7 µM (inactive) | 18.2 µM (inactive) | 4.79 µM (inactive) | 15.8 µM (inactive) | 15.2 µM (inactive) | – | 17.9 µM (inactive) | – | 14.9 µM (inactive) | 20.8 µM (inactive) |
| CC(OC(C)(C)C)C(NC(=O)C(N)CCCCNC(=O)OC(C)(C)C)C(=O)NC(Cc1ccccc1)C(=O)O (stereo unspecified) (H-Lys(Boc)-Thr(tBu)-Phe-OH; configuration not given here) | > 100 µM (inactive) | > 100 µM (inactive) | > 100 µM (inactive) | > 100 µM (inactive) | > 100 µM (inactive) | > 100 µM (inactive) | > 100 µM (inactive) | – | > 100 µM (inactive) | > 100 µM (inactive) | > 100 µM (inactive) | > 100 µM (inactive) | > 100 µM (inactive) | > 100 µM (inactive) | > 100 µM (inactive) | > 100 µM (inactive) | > 100 µM (inactive) | 15.2 µM (inactive) | > 100 µM (inactive) | > 100 µM (inactive) |
| Cc1ccc(C(=O)C#Cc2cn(C3CC(O)C(CO)O3)c(=O)[nH]c2=O)cc1 (stereo unspecified) | – | > 100 µM (inactive) | 23.6 µM (inactive) | – | > 100 µM (inactive) | 26.2 µM (inactive) | > 100 µM (inactive) | 11.5 µM (inactive) | > 100 µM (inactive) | > 100 µM (inactive) | > 100 µM (inactive) | > 100 µM (inactive) | 32.6 µM (inactive) | > 100 µM (inactive) | 53.1 µM (inactive) | – | > 100 µM (inactive) | > 100 µM (inactive) | > 100 µM (inactive) | > 100 µM (inactive) |
| COc1ccc(/C=N/Nc2nc(=S)[nH]c3[nH]ncc23)cc1 | > 100 µM (inactive) | 93.8 µM (inactive) | 14.5 µM (inactive) | 24.7 µM (inactive) | 52.2 µM (inactive) | 60.7 µM (inactive) | 36.5 µM (inactive) | 26.2 µM (inactive) | 29.9 µM (inactive) | 30 µM (inactive) | 27.5 µM (inactive) | 35.2 µM (inactive) | – | > 100 µM (inactive) | 41.8 µM (inactive) | > 100 µM (inactive) | > 100 µM (inactive) | > 100 µM (inactive) | 43.3 µM (inactive) | > 100 µM (inactive) |
| COc1ccc2oc(OC)c(CC=C(C)C)c(=O)c2c1C | > 100 µM (inactive) | > 100 µM (inactive) | > 100 µM (inactive) | > 100 µM (inactive) | > 100 µM (inactive) | > 100 µM (inactive) | > 100 µM (inactive) | > 100 µM (inactive) | > 100 µM (inactive) | > 100 µM (inactive) | > 100 µM (inactive) | > 100 µM (inactive) | – | > 100 µM (inactive) | > 100 µM (inactive) | > 100 µM (inactive) | > 100 µM (inactive) | > 100 µM (inactive) | > 100 µM (inactive) | > 100 µM (inactive) |
| CC1(C)C[C@H]2[C@H](O)C(CO)=C3C(=O)[C@@H](O)[C@]3(C)[C@H]2C1 | 17.4 µM (inactive) | 87.1 µM (inactive) | 74.6 µM (inactive) | 24.5 µM (inactive) | > 100 µM (inactive) | > 100 µM (inactive) | > 100 µM (inactive) | 64.6 µM (inactive) | > 100 µM (inactive) | > 100 µM (inactive) | 63.7 µM (inactive) | > 100 µM (inactive) | > 100 µM (inactive) | > 100 µM (inactive) | > 100 µM (inactive) | – | > 100 µM (inactive) | > 100 µM (inactive) | > 100 µM (inactive) | 48.6 µM (inactive) |
| CC12CCCC3(CC(=O)C(C)(C)C3C(=O)C1)C2 (stereo unspecified) | > 100 µM (inactive) | > 100 µM (inactive) | > 100 µM (inactive) | > 100 µM (inactive) | > 100 µM (inactive) | > 100 µM (inactive) | > 100 µM (inactive) | > 100 µM (inactive) | > 100 µM (inactive) | > 100 µM (inactive) | > 100 µM (inactive) | > 100 µM (inactive) | > 100 µM (inactive) | > 100 µM (inactive) | > 100 µM (inactive) | > 100 µM (inactive) | > 100 µM (inactive) | > 100 µM (inactive) | > 100 µM (inactive) | – |
| CNN1C(=O)c2c(C)c(C)c(C#N)c(N)c2C1=O | > 100 µM (inactive) | > 100 µM (inactive) | > 100 µM (inactive) | > 100 µM (inactive) | > 100 µM (inactive) | > 100 µM (inactive) | > 100 µM (inactive) | > 100 µM (inactive) | – | > 100 µM (inactive) | – | > 100 µM (inactive) | > 100 µM (inactive) | > 100 µM (inactive) | > 100 µM (inactive) | > 100 µM (inactive) | > 100 µM (inactive) | – | > 100 µM (inactive) | > 100 µM (inactive) |
| CCOC(=O)c1nc2ccc(C(F)(F)F)cc2[nH]c1=O | > 100 µM (inactive) | > 100 µM (inactive) | > 100 µM (inactive) | > 100 µM (inactive) | > 100 µM (inactive) | > 100 µM (inactive) | > 100 µM (inactive) | – | > 100 µM (inactive) | > 100 µM (inactive) | > 100 µM (inactive) | > 100 µM (inactive) | > 100 µM (inactive) | > 100 µM (inactive) | > 100 µM (inactive) | > 100 µM (inactive) | > 100 µM (inactive) | > 100 µM (inactive) | > 100 µM (inactive) | > 100 µM (inactive) |
| CCOC(=O)C(NC(=O)c1ccccc1)(Nc1ccc(S(=O)(=O)Nc2ncccn2)cc1)C(F)(F)F (stereo unspecified) | > 100 µM (inactive) | > 100 µM (inactive) | > 100 µM (inactive) | > 100 µM (inactive) | > 100 µM (inactive) | > 100 µM (inactive) | > 100 µM (inactive) | – | > 100 µM (inactive) | > 100 µM (inactive) | > 100 µM (inactive) | > 100 µM (inactive) | > 100 µM (inactive) | > 100 µM (inactive) | > 100 µM (inactive) | > 100 µM (inactive) | > 100 µM (inactive) | 0.513 µM (active) | > 100 µM (inactive) | > 100 µM (inactive) |
| Cc1c2c(Cl)c3c(c(Cl)c2c(C)c2c(Cl)c4c(c(Cl)c12)C(c1ccccc1)(c1ccccc1)C4(c1ccccc1)c1ccccc1)C(c1ccccc1)(c1ccccc1)C3(c1ccccc1)c1ccccc1 | > 100 µM (inactive) | > 100 µM (inactive) | > 100 µM (inactive) | > 100 µM (inactive) | > 100 µM (inactive) | > 100 µM (inactive) | > 100 µM (inactive) | > 100 µM (inactive) | > 100 µM (inactive) | > 100 µM (inactive) | > 100 µM (inactive) | > 100 µM (inactive) | > 100 µM (inactive) | > 100 µM (inactive) | > 100 µM (inactive) | – | > 100 µM (inactive) | > 100 µM (inactive) | > 100 µM (inactive) | > 100 µM (inactive) |
